Measured values from ChEMBL document CHEMBL6083269, “Design, synthesis, in vitro and in vivo trypanosomaticidal efficacy of novel 5-nitroindolylazines” (Eur J Med Chem, 2024).
pIC50: −log10 of the molar value.

What was measured:
[1] = Cytotoxicity against green monkey Vero cells incubated for 48 hrs by resazurin dye based assay; assay type: toxicity, cell-based; settings: African green monkey (Chlorocebus sabaeus)
[2] = Cytotoxicity against human […]-differentiated THP-1 cells incubated for 72 hrs by resazurin dye based assay; assay type: toxicity, cell-based
Leishmania donovani [3] = experiment: Antileishmanial activity against Leishmania donovani 9515 (MHOM/IN/95/9151) promastigote incubated for 48 hrs by resazurin dye based plate reader assay; assay type: functional, organism-based
Leishmania donovani [4] = experiment: Antileishmanial activity against Leishmania donovani 9515 (MHOM/IN/95/9151) amastigote infected in THP-1 cells assessed as inhibition of parasite growth incubated for 72 hrs by resazurin dye based plate reader assay; assay type: functional, organism-based; settings: THP-1, 72 h
Leishmania donovani [5] = experiment: Leishmanicidal activity against Leishmania donovani 9515 (MHOM/IN/95/9151) amastigote infected in THP-1 cells incubated for 72 hrs by resazurin dye based plate reader assay; assay type: functional, organism-based; settings: THP-1, 72 h
[6] = Cytotoxicity against MDBK cells incubated for 72 hrs by CCK8 assay; assay type: toxicity, cell-based, Bos taurus; settings: cattle; for CC50 at 72 h: MDBK cells
[7] = tested on: Trypanosoma brucei gambiense; experiment: Trypanocidal activity against Trypanosoma brucei gambiense IL1922 incubated for 72 hrs by CellTiter-Glo reagent based […] analysis; assay type: functional, organism-based; settings: IL1922, 72 h
[8] = tested on: Trypanosoma brucei rhodesiense; experiment: Trypanocidal activity against Trypanosoma brucei rhodesiense IL1501 incubated for 72 hrs by CellTiter-Glo reagent based […] analysis; assay type: functional, organism-based; settings: IL1501, 72 h
[9] = tested on: Trypanosoma brucei brucei; experiment: Trypanocidal activity against Trypanosoma brucei brucei GUTat3.1 incubated for 72 hrs by CellTiter-Glo reagent based […] analysis; assay type: functional, organism-based; settings: GUTat3.1, 72 h
Trypanosoma congolense = experiment: Trypanocidal activity against Trypanosoma congolense IL3000 incubated for 72 hrs by CellTiter-Glo reagent based […] analysis; assay type: functional, organism-based; settings: IL3000, 72 h
Trypanosoma evansi = experiment: Trypanocidal activity against Trypanosoma evansi Tansui incubated for 72 hrs by CellTiter-Glo reagent based […] analysis; assay type: functional, organism-based
Trypanosoma equiperdum = experiment: Trypanocidal activity against Trypanosoma equiperdum IVM-t1 incubated for 72 hrs by CellTiter-Glo reagent based […] analysis; assay type: functional, organism-based; settings: IVM-t1, 72 h
[10] = Selectivity index, ratio of CC50 for MDBK to IC50 for Trypanosoma congolense IL3000; assay type: toxicity, cell-based; settings: cattle, MDBK cells; read-out: Ratio CC50/IC50
[11] = Selectivity index, ratio of CC50 for MDBK to IC50 for Trypanosoma brucei rhodesiense IL1501; assay type: toxicity, cell-based; settings: cattle, MDBK cells; read-out: Ratio CC50/IC50
[12] = Selectivity index, ratio of IC50 for african green monkey Vero cells to IC50 for Leishmania donovani 9515 (MHOM/IN/95/9151) promastigote; assay type: toxicity, cell-based; settings: read-out: Ratio IC50
[13] = Selectivity index, ratio of IC50 for human THP-1 cells to IC50 for Leishmania donovani 9515 (MHOM/IN/95/9151) promastigote; assay type: toxicity, cell-based; settings: read-out: Ratio IC50
[14] = Selectivity index, ratio of CC50 for MDBK to IC50 for Trypanosoma brucei gambiense IL1922; assay type: toxicity, cell-based; settings: cattle, MDBK cells; read-out: Ratio CC50/IC50
[15] = Selectivity index, ratio of CC50 for MDBK to IC50 for Trypanosoma brucei brucei GUTat3.1; assay type: toxicity, cell-based; settings: cattle, MDBK cells; read-out: Ratio CC50/IC50
[16] = Selectivity index, ratio of CC50 for MDBK to IC50 for Trypanosoma evansi Tansui; assay type: toxicity, cell-based; settings: cattle, MDBK cells; read-out: Ratio CC50/IC50
[17] = Selectivity index, ratio of CC50 for MDBK to IC50 for Trypanosoma equiperdum IVM-t1; assay type: toxicity, cell-based; settings: cattle, MDBK cells; read-out: Ratio CC50/IC50
[18] = Selectivity index, ratio of IC50 for african green monkey Vero cells to IC50 for static antileishmanial activity against Leishmania donovani 9515 (MHOM/IN/95/9151) amastigote; assay type: toxicity, cell-based; settings: read-out: Ratio IC50
[19] = Selectivity index, ratio of IC50 for human THP-1 cells to IC50 for static antileishmanial activity against Leishmania donovani 9515 (MHOM/IN/95/9151) amastigote; assay type: toxicity, cell-based; settings: read-out: Ratio IC50
[20] = Selectivity index, ratio of IC50 for african green monkey Vero cells to IC50 for leishmanicidal activity against Leishmania donovani 9515 (MHOM/IN/95/9151) amastigote; assay type: toxicity, cell-based; settings: read-out: Ratio IC50
[21] = Selectivity index, ratio of IC50 for human THP-1 cells to IC50 for leishmanicidal activity against Leishmania donovani 9515 (MHOM/IN/95/9151) amastigote; assay type: toxicity, cell-based; settings: read-out: Ratio IC50
Leishmania major [22] = experiment: Antileishmanial activity against Leishmania major IR-173 (MHO-M/IR/-173) promastigote incubated for 48 hrs by resazurin dye based plate reader assay; assay type: functional, organism-based
[23] = Selectivity index, ratio of IC50 for african green monkey Vero cells to IC50 for Leishmania major IR-173 (MHO-M/IR/-173) promastigote; assay type: toxicity, cell-based; settings: read-out: Ratio IC50
[24] = Selectivity index, ratio of IC50 for human THP-1 cells to IC50 for Leishmania major IR-173 (MHO-M/IR/-173) promastigote; assay type: toxicity, cell-based; settings: read-out: Ratio IC50
Leishmania major [25] = experiment: Antileishmanial activity against Leishmania major NIH-S (MHOM/SN/74/Seidman) amastigote infected in THP-1 cells assessed as inhibition of parasite growth incubated for 72 hrs by resazurin dye based plate reader assay; assay type: functional, organism-based; settings: THP-1, 72 h
Leishmania major [26] = experiment: Leishmanicidal activity against Leishmania major NIH-S (MHOM/SN/74/Seidman) amastigote incubated for 48 hrs by resazurin dye based plate reader assay; assay type: functional, organism-based

SMILES	IC50 at 48 h [1] [µM]	IC50 at 72 h [2] [µM]	pIC50 (Leishmania donovani [3])	pIC50 (Leishmania donovani [4])	pIC50 (Leishmania donovani [5])	CC50 at 72 h [6] [µM]	pIC50 [7]	pIC50 [8]	pIC50 [9]	pIC50 (Trypanosoma congolense)	pIC50 (Trypanosoma evansi)	pIC50 (Trypanosoma equiperdum)	selectivity ratio [10]	selectivity ratio [11]	selectivity ratio [18]	selectivity ratio [19]	selectivity ratio [20]	selectivity ratio [21]	further results
C#CCn1cc(/C=N\N=C\c2nccn2C)c2cc([N+](=O)[O-])ccc21	54.7	29.7	< 5.00	< 5.00	< 5.00	> 302	< 4.12	< 4.12	< 4.12	4.89	< 4.12	< 4.12	> 23.5						
C#CCn1cc(/C=N\N=C/CCC)c2cc([N+](=O)[O-])ccc21	> 100	43.9	< 5.00	< 5.00	< 5.00	> 338	< 4.07	4.31	< 4.07	< 4.07	< 4.07	< 4.07		> 6.96					
C#CCn1cc(/C=N\N=C\C(C)=Cc2ccccc2)c2cc([N+](=O)[O-])ccc21	9.59	> 100	5.10	< 5.00	< 5.00		4.56	5.01	4.57	< 5.01	4.64	4.54	0.94	0.93					selectivity ratio [12]: 1; selectivity ratio [13]: 13; CC50 ([6]; mdbk, 72 h): 226 µM; selectivity ratio [14]: 0.34; selectivity ratio [15]: 0.34; selectivity ratio [16]: 0.41; selectivity ratio [17]: 0.32
C#CCn1cc(/C=N\N=C\c2ccccn2)c2cc([N+](=O)[O-])ccc21	> 100	> 100	< 5.00	5.80	5.47	> 121	< 4.12	< 4.12	< 4.12	< 4.12	< 4.12	< 4.12			> 63	63	> 30	> 30	
C#CCn1cc(/C=N\N=C\c2cnc[nH]2)c2cc([N+](=O)[O-])ccc21	83.2	42.5	< 5.00	< 5.00	< 5.00	> 312	< 4.11	< 4.11	< 4.11	4.83	< 4.11	< 4.11	> 21						
C#CCn1cc(/C=N\N=C\c2ccco2)c2cc([N+](=O)[O-])ccc21	> 100	> 100	< 5.00	6.05	5.59	> 312	< 4.11	< 4.11	< 4.11	< 4.11	< 4.11	< 4.11			> 112	112	> 39	> 39	pIC50 (Leishmania major [22]): 5.31; selectivity ratio [23]: 20; selectivity ratio [24]: 20; pIC50 (Leishmania major [25]): < 5.00; pIC50 (Leishmania major [26]): < 5.00
